Measured values as given in patent US20250333573A1, “METHOD FOR TEXTILE AND POLYESTER DECONSTRUCTION AND UPCYCLING TO BIOPLASTIC IN A HALOPHILE” (Battelle Memorial Institute, priority 2024, published 2025).

Legend:
[1] = system: Halomonas elongata DSMZ 2581; experiment: Growth of Halomonas elongata on lactate and crotonate as the carbon source (OD600); type: cell-based; conditions: 3 g/L crotonic acid alone; MM63 medium, 60 g/L NaCl, pH 8.0
Experimental: FIG. 30B: Growth of Halomonas elongata DSMZ 2581 in MM63 medium containing 3 g/L lactate, 3 g/L crotonate, and mixture of 3 g/L lactate and 3 g/L crotonate as indicated. MM63 medium contained 13.61 g/L KH·PO4, 4.21 g/L KOH, 1.98 (NH4)2SO4, 0.0011 g/L FeSO4—H2O 0.25 g/L MgSO4-7H2O, and 60 g/L NaCl set at pH=8.0. Points represent the average of three replicates and error bars are one standard deviation.
Media was prepared with MM63 minimal salts medium directly and used as a growth substrate for Halomonas elongata strain. MM63 minimal salts medium contains 13.61 g/L KH·PO4, 4.21 g/L KOH, 1.98 (NH4)2SO4, 0.0011 g/L FeSO4—H2O 0.25 g/L MgSO4-7H2O, 60 g/L NaCl. […] Assuming linearity in biomass to substrate loading, and assuming the major carbon source was crotonate and/or lactate, the increased optical density over time would indicate a high conversion of the substrates in the Halomonas strain.
Cell density was measured using a spectrophotometric assay detecting absorbance of each well/cuvette at 600 nm. The measurements were performed using a Thermo Scientific Genesys 150 spectrophotometer. A non-inoculated control was used to subtract background absorbance.

WT Halomonas elongata = experiment: Growth of WT Halomonas elongata on subcritical water products and ethylene glycol (OD600); type: cell-based; conditions: 5 g/L ethylene glycol; minimal salts medium, 60 g/L NaCl
Experimental: This was prepared with minimal salts medium directly and used as a growth substrate for the WT Halomonas elongata strain.
The SCW product contained 4.1 g/L EG, and the final medium preparation contained ˜1.6 g/L EG.

Compound | final optical density [1] | final OD600 (WT Halomonas elongata)
C/C=C/C(=O)O [crotonate, crotonic acid] | 6.0 | –
OCCO [ethylene glycol] | – | 3.16
